# Read-outs that look alike come from different tables or passages of the source. Where a SMILES comes first, the peptide text is derived from it.
# Molecular target: T1, LmjIPCS (inositol phosphorylceramide synthase from L. major) (Leishmania major, UniProt E9AFX2)
# T1 sequence (E9AFX2 1-338): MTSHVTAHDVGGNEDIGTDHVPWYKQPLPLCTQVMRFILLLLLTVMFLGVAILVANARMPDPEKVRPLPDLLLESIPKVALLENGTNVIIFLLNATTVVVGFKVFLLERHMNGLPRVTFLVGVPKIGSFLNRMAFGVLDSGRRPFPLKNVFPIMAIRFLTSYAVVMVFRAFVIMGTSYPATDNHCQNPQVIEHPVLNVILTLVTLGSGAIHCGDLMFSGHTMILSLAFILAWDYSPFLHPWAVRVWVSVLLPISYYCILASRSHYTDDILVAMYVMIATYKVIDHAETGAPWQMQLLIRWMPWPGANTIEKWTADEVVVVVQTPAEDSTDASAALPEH
# Assay: biochemical
# Format: biochemical
# Parameters: inhibition: dose or concentration left out as unconfirmed
# Conditions: for inhibition at 20000 µM: read-out: 20mM inhibition LmjIPCS; for inhibition: read-out: inhibition LmjIPCS
# [1] = NINDS set screen, single concentration printed as 20mM
# [2] = screening of NINDS set, sheet Screen 1
molecule,measurement,setting,value
C/C=C(/C)C(=O)O[C@H]1CC[C@@]2(C)[C@@H]3CC[C@H]4[C@]5(O)C[C@H](O)[C@@]6(O)[C@@H](CN7C[C@@H](C)CC[C@H]7[C@@]6(C)O)[C@]5(O)C[C@@]42O[C@]13O [CEVADINE],inhibition at 20000 µM,,10%
Cc1ccc(C)c(OCCCC(C)(C)C(=O)O)c1 [GEMFIBROZIL],inhibition at 20000 µM,,-1.79%
CCN(CC)CCNC(=O)COc1ccc(OC)cc1 [MEFEXAMIDE],inhibition,NINDS set screen,13%
CC(C)(O)CC[C@@H](O)[C@](C)(O)[C@H]1CC[C@@]2(O)C3=CC(=O)[C@@H]4C[C@@H](O)[C@@H](O)C[C@]4(C)[C@H]3CC[C@]12C [CRUSTECDYSONE],inhibition,NINDS set screen,-3.51%
Nc1ncnc2c1ncn2[C@@H]1O[C@H](CO)[C@@H](O)[C@H]1O [ADENOSINE],20mM inhibition LmjIPCS,,41%
CC1CCc2cc(F)cc3c(=O)c(C(=O)O)cn1c23 (stereo not shown) [FLUMEQUINE],inhibition at 20000 µM,,5%
Cn1nnnc1SCC1=C(C(=O)O)N2C(=O)[C@@H](NC(=O)[C@H](O)c3ccccc3)[C@H]2SC1 [CEFAMANDOLE],inhibition at 20000 µM,,10%
CC(N)C(=O)OC(C)(C)Cc1ccc(Cl)cc1 (stereo not shown) [ALAPROCLATE],20mM inhibition LmjIPCS,,36%
O=C1O[C@H](CO)[C@@H](O)[C@H](O)[C@H]1O [GLUCONOLACTONE],inhibition at 20000 µM,,0.589%
CC[C@@]1(O)C(=O)OCc2c1cc1n(c2=O)Cc2cc3ccccc3nc2-1 [CAMPTOTHECIN],inhibition at 20000 µM,,1.2%
O=C(O)CCNC(=O)c1ccccc1 [BETAMIPRON],inhibition at 20000 µM,,-3.5%
CNCCCN1c2ccccc2CCc2ccccc21 [DESIPRAMINE],20mM inhibition LmjIPCS,,64%
CCN(CC)Cc1cc(Nc2ccnc3cc(Cl)ccc23)ccc1O [AMODIAQUINE],20mM inhibition LmjIPCS,,59%
O=C(/C=C/c1ccc(O)c(O)c1)O[C@H](Cc1ccc(O)c(O)c1)C(=O)O [ROSMARINIC ACID],20mM inhibition LmjIPCS,,58%
CC1Cc2ccccc2N1NC(=O)c1ccc(Cl)c(S(N)(=O)=O)c1 (stereo not shown) [INDAPAMIDE],inhibition,,5%
NC[C@H](O)c1ccc(O)c(O)c1 [NOREPINEPHRINE],inhibition at 20000 µM,,12%
C[C@H](CS)C(=O)N1CCC[C@H]1C(=O)O [CAPTOPRIL],inhibition at 20000 µM,,1.19%
CC(=O)/N=c1/sc(S(N)(=O)=O)nn1C [METHAZOLAMIDE],inhibition,NINDS set screen,-4.59%
OCCN(CCO)c1nc(N2CCCCC2)c2nc(N(CCO)CCO)nc(N3CCCCC3)c2n1 [DIPYRIDAMOLE],inhibition,NINDS set screen,-11%
CC(=O)NS(=O)(=O)c1ccc(N)cc1 [SULFACETAMIDE],inhibition at 20000 µM,,-1.63%
CN1CCOC(c2ccccc2)c2ccccc2C1 (stereo not shown) [NEFOPAM],20mM inhibition LmjIPCS,,68%
CCCN(CCC)S(=O)(=O)c1ccc(C(=O)O)cc1 [PROBENECID],inhibition,NINDS set screen,13%
COc1ccc2cc(CCC(C)=O)ccc2c1 [NABUMETONE],inhibition,NINDS set screen,12%
NNCCc1ccccc1 [PHENELZINE],inhibition at 20000 µM,,27%
CC(C)NCC(O)COc1cccc2[nH]ccc12 (stereo not shown) [PINDOLOL],inhibition at 20000 µM,,16%
FC(F)(F)c1cccc(N2CCNCC2)c1,20mM inhibition LmjIPCS,,54%
Nc1ccc(C(=O)O)c(O)c1 [AMINOSALICYLATE SODIUM],20mM inhibition LmjIPCS,,43%
C[C@H]1[C@H](C)CC[C@]2(C(=O)O)CC[C@]3(C)C(=CC[C@@H]4[C@@]5(C)C[C@@H](O)[C@H](O)[C@@](C)(CO)[C@@H]5[C@H](O)C[C@]43C)[C@H]12 [MADECASSIC ACID],inhibition,,10%
COc1ccccc1N1CCNCC1 [1- (2-METHOXYPHENYL)PIPERAZINE],20mM inhibition LmjIPCS,,30%
COC(=O)N/N=C/c1c[n+]([O-])c2ccccc2[n+]1[O-] [CARBADOX],inhibition,NINDS set screen,12%
CCCn1c(=O)c2[nH]c(C3CCCC3)nc2n(CCC)c1=O,inhibition,,2.66%
CCCNC(=O)NS(=O)(=O)c1ccc(Cl)cc1 [CHLORPROPAMIDE],20mM inhibition LmjIPCS,[1],55%
CC(=O)N1CCN(c2ccc(OCC3COC(Cn4ccnc4)(c4ccc(Cl)cc4Cl)O3)cc2)CC1 (stereo not shown) [KETOCONAZOLE],20mM inhibition LmjIPCS,,69%
C=C(C)[C@@H]1CC=C(CO)CC1 [PERILLYL ALCOHOL],inhibition at 20000 µM,,11%
CN(C)CCOC(=O)C(c1ccccc1)C1(O)CCCC1 (stereo not shown) [CYCLOPENTOLATE],inhibition,NINDS set screen,16%
CCOC(=O)[C@H](CCc1ccccc1)N[C@@H](C)C(=O)N1[C@H](C(=O)O)C[C@H]2CCCC[C@@H]21 [TRANDOLAPRIL],inhibition at 20000 µM,,7.54%
CCCOc1ccccc1-c1nc2nn[nH]c2c(=O)[nH]1 [ZAPRINAST],inhibition,[2],7%
CC(=O)[C@H]1CC[C@H]2[C@@H]3CC=C4C[C@@H](O)CC[C@]4(C)[C@H]3CC[C@]12C [PREGNENOLONE],20mM inhibition LmjIPCS,[1],52%
CC(CCc1ccccc1)NCC(O)c1ccc(O)c(C(N)=O)c1 (stereo not shown) [LABETALOL],20mM inhibition LmjIPCS,,50%
Nc1nccs1 [AMINOTHIAZOLE],inhibition at 20000 µM,,-32%
CC(=O)N(O)CCCCCNC(=O)CCC(=O)N(O)CCCCCNC(=O)CCC(=O)N(O)CCCCCN [DEFEROXAMINe],inhibition,,-4.52%
Cc1ncc([N+](=O)[O-])n1CCO [METRONIDAZOLE],inhibition,,7%
NCC(O)CC(=O)O (stereo not shown) [AMINOHYDROXYBUTYRIC ACID],20mM inhibition LmjIPCS,,4%
CCCCOC(=O)c1ccc(N)cc1 [BUTAMBEN],inhibition,NINDS set screen,14%
CCCCCCCCCCCCCCCC(=O)OC/C=C(C)/C=C/C=C(C)/C=C/C1=C(C)CCCC1(C)C [RETINYL PALMITATE],inhibition,NINDS set screen,18%
CN(C)[C@@H]1C(O)=C(C(N)=O)C(=O)[C@@]2(O)C(O)=C3C(=O)c4c(O)cccc4[C@@](C)(O)[C@H]3C[C@@H]12 [TETRACYCLINE],20mM inhibition LmjIPCS,,36%
CC(C(=O)O)c1cccc(Oc2ccccc2)c1 (stereo not shown) [FENOPROFEN],inhibition at 20000 µM,,6%
O=C1C[C@@H](c2ccccc2)Oc2cc(O)cc(O)c21 [PINOCEMBRIN],20mM inhibition LmjIPCS,[1],35%
C#C[C@]1(OC(C)=O)CC[C@H]2[C@@H]3CCC4=CC(=O)CC[C@@H]4[C@H]3CC[C@@]21C [NORETHINDRONE ACETATE],inhibition at 20000 µM,,30%
CC(=O)NCCCCCC(=O)O [ACEXAMIC ACID],inhibition,[2],6%
CC(=O)N[C@@H](CC(=O)N[C@@H](CCC(=O)O)C(=O)O)C(=O)O [SPAGLUMIC ACID],inhibition at 20000 µM,,1.82%
OCCN1CCN(CCCN2c3ccccc3Sc3ccc(Cl)cc32)CC1 [PERPHENAZINE],inhibition,,0.226%
Nc1ccc(S(=O)(=O)Nc2ncccn2)cc1 [SULFADIAZINE],inhibition at 20000 µM,,18%
CC(=O)OCC(CCn1cnc2cnc(N)nc21)COC(C)=O [FAMCICLOVIR],inhibition at 20000 µM,,1.36%
CN1C(=O)CCS(=O)(=O)C1c1ccc(Cl)cc1 (stereo not shown) [CHLORMEZANONE],inhibition at 20000 µM,,-1.07%
CN/C(=N/CCSCc1nc[nH]c1C)NC#N [CIMETIDINE],inhibition at 20000 µM,,-0.386%
CCN1C[C@]2(C)CC[C@H](OC)[C@@]34C1[C@]1(OCO[C@@]15C[C@H](OC)[C@H]1C[C@]3(O)[C@@H]5[C@H]1OC)[C@@H](OC(C)=O)[C@H]24 [DELTALINE],inhibition at 20000 µM,,22%
CCC1(C)CC(=O)NC1=O (stereo not shown) [ETHOSUXIMIDE],inhibition,[2],6%
O=C(O)c1cc(O)c2cccc(O)c2n1 [X[…]],inhibition at 20000 µM,,8%
CCCN(CCC)C(=O)C(CCC(=O)O)NC(=O)c1ccccc1 (stereo not shown) [PROGLUMIDE],inhibition at 20000 µM,,15%
Cc1onc(-c2ccccc2Cl)c1C(=O)N[C@@H]1C(=O)N2[C@@H]1SC(C)(C)[C@@H]2C(=O)O [CLOXACILLIN],20mM inhibition LmjIPCS,,45%
MERBROMIN,20mM inhibition LmjIPCS,,-21%
CC1CCC(NC(=O)N(CCCl)N=O)CC1 (stereo not shown) [SEMUSTINE],inhibition at 20000 µM,,15%
CC(=O)N[C@@H](CS)C(=O)O [ACETYLCYSTEINE],20mM inhibition LmjIPCS,,53%
C=CC1=C(C(=O)O)N2C(=O)[C@@H](NC(=O)/C(=N\O)c3csc(N)n3)[C@H]2SC1,inhibition at 20000 µM,,9%
CC[C@]12CCCN3CCc4c(n(c5ccccc45)[C@@](O)(C(=O)OC)C1)[C@@H]32 [VINCAMINE],inhibition,NINDS set screen,-17%
CC[N+](C)(C)Cc1ccccc1Br [BRETYLIUM],inhibition,,14%
COC(=O)Nc1nc2ccc(Sc3ccccc3)cc2[nH]1 [FENBENDAZOLE],inhibition,,20%
CCOc1nc2cccc(C(=O)OC(C)OC(=O)OC3CCCCC3)c2n1Cc1ccc(-c2ccccc2-c2nn[nH]n2)cc1 (stereo not shown) [CANDESARTAN CILEXTIL],20mM inhibition LmjIPCS,,11%
CCN1CCCC(OC(=O)C(c2ccccc2)c2ccccc2)C1 (stereo not shown) [PIPERIDOLATE],20mM inhibition LmjIPCS,,39%
Cc1cc(=O)n(-c2ccccc2)n1C [ANTIPYRINE],20mM inhibition LmjIPCS,,36%
CC(C)C[C@H](NC(=O)CN)C(=O)N[C@@H](Cc1ccccc1)C(=O)O (H-Gly-Leu-Phe-OH),inhibition at 20000 µM,,11%
N=C(N)NC(=N)Nc1ccccc1 [1-PHENYLBIGUANIDE],20mM inhibition LmjIPCS,"single concentration 20mM as printed, screening of NINDS set, sheet Screen 1",11%
C#CC1(O)CC[C@H]2[C@@H]3CCC4=CC(=O)CC[C@@H]4[C@H]3CC[C@@]21CC (mixture of isomers) [NORGESTREL],inhibition at 20000 µM,,17%
Cc1scc2c1N(C(=O)CN1CCN(C)CC1)c1ccccc1NC2=O [TELENZEPINE],20mM inhibition LmjIPCS,,35%
Cc1cccc(C)c1N=C1NCCCS1 [XYLAZINE],inhibition at 20000 µM,,-14%
[O-][n+]1ccccc1S [PYRITHIONE ZINC],inhibition at 20000 µM,,10%
CN1CCN(C(c2ccccc2)c2ccccc2)CC1 [CYCLIZINE],20mM inhibition LmjIPCS,,58%
C=C1c2cccc(O)c2C(=O)C2=C(O)[C@]3(O)C(=O)C(C(N)=O)=C(O)[C@@H](N(C)C)[C@@H]3[C@@H](O)[C@H]12 [METHACYCLINE],inhibition at 20000 µM,,33%
